The values below are quoted from earlier work in US10799517B2, “Oral composition of celecoxib for treatment of pain” (Dr. Reddy's Laboratories Ltd., priority 2015, dated 2020).

Each structure is given as a SMILES string.

For data set [1] the following is noted: between 5° C. and 40° C.; pH independent at pH<9.
The conditions of data set [2]: upon oral administration.

For `Cc1ccc(-c2cc(C(F)(F)F)nn2-c2ccc(S(N)(=O)=O)cc2)cc1` [Celecoxib, 4-[5-(4-methylphenyl)-3-(trifluoromethyl)-1H-pyrazol-1-yl] benzenesulfonamide], the aqueous solubility entry in data set [1] is “about 5 μg/ml”. The “time for peak plasma concentrations to be achieved” value in data set [2] is on record as “approximately 3.0 hours”.
